From US20220144812A1, “QUINOLINE DERIVATIVES AND THEIR USE FOR THE TREATMENT OF CANCER” (Epizyme, Inc., priority 2019, published 2022) come the findings set out here.

The target in one test is T1, EP300 (P300(1048-1664)) (Homo sapiens, UniProt Q09472).
T1 construct: P300(1048-1664)
T1 sequence (Q09472 1048-1664): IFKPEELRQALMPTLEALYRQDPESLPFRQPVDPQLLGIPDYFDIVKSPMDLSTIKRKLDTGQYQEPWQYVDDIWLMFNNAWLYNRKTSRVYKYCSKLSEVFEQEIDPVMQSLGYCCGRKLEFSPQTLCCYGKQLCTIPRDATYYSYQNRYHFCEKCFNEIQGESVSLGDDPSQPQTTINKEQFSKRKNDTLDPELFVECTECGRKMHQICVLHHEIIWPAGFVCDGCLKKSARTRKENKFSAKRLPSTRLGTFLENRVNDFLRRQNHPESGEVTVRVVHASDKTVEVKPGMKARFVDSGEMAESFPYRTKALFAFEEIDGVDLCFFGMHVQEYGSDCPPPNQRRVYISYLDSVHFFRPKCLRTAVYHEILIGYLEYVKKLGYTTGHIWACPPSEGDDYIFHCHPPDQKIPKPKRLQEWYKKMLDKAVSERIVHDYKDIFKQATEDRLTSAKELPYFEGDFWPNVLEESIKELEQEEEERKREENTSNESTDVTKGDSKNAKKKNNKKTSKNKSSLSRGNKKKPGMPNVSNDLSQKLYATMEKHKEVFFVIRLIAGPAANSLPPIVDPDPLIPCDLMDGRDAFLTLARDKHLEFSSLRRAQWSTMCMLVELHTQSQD
Put plainly: Biochemical assay for EP300, SAMDI. The note with it: EP300, SAMDI; read-out: EP300 Biochemistry IC50. The text has this:
The following example describes materials and methods relating to a biochemical assay for EP300. IC50 values (micromolar (μM)) are summarized in Table 1, Table 2, and Table 3 under the column labeled: “EP300 Biochemistry IC50 (micromolar).”

Test [1] has as its system H3K18Ac in HB-CLS-2 cells. Put plainly: H3K18AC in-cell western (ICW) assay. The class given is cell-based. The note with it: H3K18Ac in-cell western; read-out: CREBBP ICW IC50. The essentials: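 In-cell western: after methanol fixation, blocking, overnight 4° C anti-H3K18Ac staining, then 800CW secondary plus DRAQ5 for DNA content, integrated intensities were scanned at 800 and 700 nm. Before this, compound exposure lasted 2 hr at 37° C in HB-CLS-2 cells plated 16–24 hours earlier. Values expressed as IC50 (μM).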

The subject of the next test is KU1919 bladder cell line. Put plainly: 7-day proliferation assay, KU1919. The class given is cell-based. The note with it: Homo sapiens, KU-19-19, 168 h; KU1919, 7 days, CellTiter-Glo. How it is done:
(§1) This example describes methods and materials for 7-day proliferation assay.
(§2) A total of 22 bladder cell lines were used (see table below). Cell lines were cultured in recommended growth media according to supplier.
(§3) Cells were in culture media at a density optimized for a 7-day culture in a final volume of 150 μL per well in white opaque 96-well plates. Cells were allowed to adhere for several hours (4-6 h) then compounds were added with HPD300 Digital Dispenser and placed into the incubator at 37° C., 5% CO2 for 7 days. After 7 days incubation, 100 μL of CellTiter-Glo® Luminescent Cell Viability Assay (Promega-G7573) reagents were added per well. After 20 minutes incubation luminescence was measured in plate reader. IC50 were calculated from a non-linear logarithmic growth curve.
(§4) IC50 values (nanomolar (nM)) are summarized in the table below, which depicts the inhibitory effect of certain compounds in bladder cell lines.
For orientation: ATP-based viability assays read luminescence as a measure of living cells.

Test [2] has as its system HB-CLS-2 bladder cell line. Nature of the test: 7-day proliferation assay, HB-CLS-2. Format: cell-based. The note with it: 168 h; HB-CLS-2, 7 days, CellTiter-Glo. How it is done:
as §1, §2, §3, §4

Another test has as its system SW780 bladder cell line. Put plainly: 7-day proliferation assay, SW780. The note with it: Homo sapiens, 168 h; SW780, 7 days, CellTiter-Glo. Format: cell-based. How it is done: as §1, §2, §3, §4
For test [3], the system named is UM-UC-3 bladder cell line. Nature of the test: 7-day proliferation assay, UM-UC-3. Format: cell-based. The note with it: Homo sapiens, UMUC3, 168 h; UM-UC-3, 7 days, CellTiter-Glo. The protocol: as §1, §2, §3, §4
In another test the test system is SCABER bladder cell line. Put plainly: 7-day proliferation assay, SCABER. The class given is cell-based. To be noted: Homo sapiens, 168 h, 7 days, CellTiter-Glo. The protocol:
as §1, §2, §3, §4

The next test deals with HT1376 bladder cell line. Nature of the test: 7-day proliferation assay, HT1376. Format: cell-based. To be noted: Homo sapiens, HT-1376, 168 h; HT1376, 7 days, CellTiter-Glo. How it is done:
as §1, §2, §3, §4

What is called IC50 is the point on the concentration scale where inhibition reaches its midpoint. For `CCn1ncc(CN(C)C(=O)c2cc(-c3ccc(NCCNC)c(C)n3)nc3ccc(Cl)cc23)c1C` [Compound 3, 6-chloro-N-[(1-ethyl-5-methyl-1H-pyrazol-4-yl)methyl]-N-methyl-2-(6-methyl-5-{[2-(methylamino)ethyl]amino}pyridin-2-yl)quinoline-4-carboxamide], the IC50 at EP300 (P300(1048-1664)) was 4.4 nM; in test [1], 40 nM; in the test on KU1919 bladder cell line it was 145 nM; in test [2], 220 nM; with SW780 bladder cell line it was 228 nM; in test [3] it was 792 nM. In addition, the IC50 in the test with SCABER bladder cell line was determined as 249 nM; in the test on HT1376 bladder cell line, 3890 nM.
With `CCn1ncc(CN(C)C(=O)c2cc(-c3ccc(NC4CN(C)C4)c(C)n3)nc3ccc(Cl)cc23)c1C` [Compound 480], the IC50 was determined as 6.5 nM on EP300 (P300(1048-1664)); 23.1 nM in test [1]; 90.5 nM in the test on KU1919 bladder cell line; 344 nM in test [2]; 126 nM in the test on SW780 bladder cell line; 584 nM in test [3]. For the same molecule, the figures for the IC50 in the test on SCABER bladder cell line and with HT1376 bladder cell line were 172 nM and 1250 nM, respectively.
Turning to `CCc1noc(CN(C)C(=O)c2cc(-c3ccc(NCCNC)c(C)n3)nc3ccc(Cl)cc23)c1C` [Compound 537], the IC50 at EP300 (P300(1048-1664)) was found to be 22 nM; in test [1], 48.3 nM; in the test on KU1919 bladder cell line it was 217 nM; in test [2] it was 434 nM; with SW780 bladder cell line, 322 nM; in test [3] it was 1380 nM. The 50% inhibitory concentration (IC50) is 252 nM with SCABER bladder cell line and 2760 nM in the test with HT1376 bladder cell line.
In the case of `CCc1ncc(CN(C)C(=O)c2cc(-c3ccc(NCCN(C)C)c(C)n3)nc3ccc(Cl)cc23)n1C` [Compound 577], the IC50 was 18.7 nM at EP300 (P300(1048-1664)); 85.4 nM in test [1]; 102 nM in the test on KU1919 bladder cell line; 240 nM in test [2]; 168 nM in the test on SW780 bladder cell line; 1100 nM in test [3]. Besides, the IC50 is 182 nM in the test on SCABER bladder cell line and 2070 nM in the test on HT1376 bladder cell line.
